Assay results published in ChEMBL document CHEMBL1201862, “PubChem BioAssay data set” (2004).
Calls of active or inactive are those of the source. Cut-off read from the data, not from the text of the source, for most assays here: actives have a measured EC50 and inactives only a lower limit.

What was measured:
[1] = biological target: T1, RNA-binding protein pos-1 (Caenorhabditis elegans, UniProt G5EF15); experiment: disruptors of C. elegans POS-1 RNA interaction – biochemical, fluorescence polarization, dose response (AID 1964);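 note: purified POS-1 fused to maltose binding protein made in E. coli; potency of compounds blocking POS-1 binding to fluorescent RNA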
T1 sequence (G5EF15 whole entry): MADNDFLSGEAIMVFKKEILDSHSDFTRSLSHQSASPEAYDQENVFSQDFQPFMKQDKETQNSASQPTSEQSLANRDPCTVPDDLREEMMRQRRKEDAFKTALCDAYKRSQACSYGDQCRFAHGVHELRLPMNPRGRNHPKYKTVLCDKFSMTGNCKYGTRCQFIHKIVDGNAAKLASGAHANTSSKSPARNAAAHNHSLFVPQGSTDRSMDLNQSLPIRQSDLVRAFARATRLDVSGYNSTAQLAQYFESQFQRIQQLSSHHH

[2] = test system: Streptococcus sp. 'group A'; experiment: Streptococcus pyogenes SK(-)GAS viability under kanamycin – luminescence, BacTiterGlo, confirmation, counter-screen for streptokinase expression inhibitor project, dose response (AID 1900); type: functional, organism-based
[3] = biological target: T2, Zinc finger protein mex-5 (Caenorhabditis elegans, UniProt Q9XUB2); experiment: potency of MEX-5 RNA-binding blockers – biochemical, C. elegans, fluorescence polarization, dose response (AID 1960)
T2 sequence (Q9XUB2 whole entry): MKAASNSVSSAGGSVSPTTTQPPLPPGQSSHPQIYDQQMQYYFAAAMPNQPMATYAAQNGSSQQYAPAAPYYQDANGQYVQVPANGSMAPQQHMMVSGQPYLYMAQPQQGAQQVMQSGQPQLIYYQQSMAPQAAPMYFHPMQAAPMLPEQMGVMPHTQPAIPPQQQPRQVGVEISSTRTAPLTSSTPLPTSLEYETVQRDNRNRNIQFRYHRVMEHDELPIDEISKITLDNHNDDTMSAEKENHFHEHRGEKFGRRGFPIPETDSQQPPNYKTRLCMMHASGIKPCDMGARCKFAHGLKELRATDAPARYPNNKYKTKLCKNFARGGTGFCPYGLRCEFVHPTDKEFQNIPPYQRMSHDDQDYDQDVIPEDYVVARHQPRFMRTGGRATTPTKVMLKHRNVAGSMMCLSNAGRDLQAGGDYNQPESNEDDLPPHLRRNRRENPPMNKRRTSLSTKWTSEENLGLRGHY

Streptococcus = experiment: GAS UMAA2166 growth inhibition – luminescence, BacTiterGlo, counter-screen for streptokinase expression inhibitor project, dose response (AID 1915); type: functional, organism-based;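 note: potency for reduction of bacterial viability or growth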
[4] = NIH-3T3 fibroblast cytotoxicity, dose response, cytotoxicity control, cell-based, fluorescence, Alamar Blue, secondary assay (AID 2327); type: functional;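 note: NIH-3T3 mouse fibroblasts cultured with fluconazole at 8 µg/mL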
[5] = fluconazole-exposed Candida albicans growth modulators – fluorescence, retest, confirmation (AID 2467); type: functional, cell-based
[6] = biological target: T3, Rac GTPase-activating protein 1 (Homo sapiens, UniProt Q9H0H5); experiment: blockers of MgcRacGAP-driven Rac1 GTP hydrolysis – biochemical, ADP Hunter fluorescence, primary and confirmatory, confirmation (AID 624330); type: functional
T3 sequence (Q9H0H5 whole entry): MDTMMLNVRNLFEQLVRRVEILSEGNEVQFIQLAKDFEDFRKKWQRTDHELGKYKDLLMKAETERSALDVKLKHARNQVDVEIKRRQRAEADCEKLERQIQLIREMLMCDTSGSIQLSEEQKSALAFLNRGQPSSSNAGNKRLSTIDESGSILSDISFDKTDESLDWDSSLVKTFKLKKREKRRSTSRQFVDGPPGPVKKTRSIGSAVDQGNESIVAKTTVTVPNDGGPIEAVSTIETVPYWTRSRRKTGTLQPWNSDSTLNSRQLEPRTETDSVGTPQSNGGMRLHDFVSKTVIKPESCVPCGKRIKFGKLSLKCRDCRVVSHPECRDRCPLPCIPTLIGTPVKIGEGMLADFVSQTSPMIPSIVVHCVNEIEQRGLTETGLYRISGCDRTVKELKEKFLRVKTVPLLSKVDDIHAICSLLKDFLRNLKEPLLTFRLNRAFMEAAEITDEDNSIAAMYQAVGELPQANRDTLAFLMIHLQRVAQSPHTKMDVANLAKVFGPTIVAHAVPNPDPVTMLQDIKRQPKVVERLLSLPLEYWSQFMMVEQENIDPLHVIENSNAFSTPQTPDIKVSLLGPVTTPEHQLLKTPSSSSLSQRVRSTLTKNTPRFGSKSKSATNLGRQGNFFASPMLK

[7] = biological target: T4, Replicative DNA helicase DnaB (Mycobacterium tuberculosis, UniProt P9WMR3); experiment: DnaB intein splicing inhibitors, dose response, biochemical, cell-free fluorescence (AID 449749); type: functional
T4 sequence (P9WMR3 whole entry): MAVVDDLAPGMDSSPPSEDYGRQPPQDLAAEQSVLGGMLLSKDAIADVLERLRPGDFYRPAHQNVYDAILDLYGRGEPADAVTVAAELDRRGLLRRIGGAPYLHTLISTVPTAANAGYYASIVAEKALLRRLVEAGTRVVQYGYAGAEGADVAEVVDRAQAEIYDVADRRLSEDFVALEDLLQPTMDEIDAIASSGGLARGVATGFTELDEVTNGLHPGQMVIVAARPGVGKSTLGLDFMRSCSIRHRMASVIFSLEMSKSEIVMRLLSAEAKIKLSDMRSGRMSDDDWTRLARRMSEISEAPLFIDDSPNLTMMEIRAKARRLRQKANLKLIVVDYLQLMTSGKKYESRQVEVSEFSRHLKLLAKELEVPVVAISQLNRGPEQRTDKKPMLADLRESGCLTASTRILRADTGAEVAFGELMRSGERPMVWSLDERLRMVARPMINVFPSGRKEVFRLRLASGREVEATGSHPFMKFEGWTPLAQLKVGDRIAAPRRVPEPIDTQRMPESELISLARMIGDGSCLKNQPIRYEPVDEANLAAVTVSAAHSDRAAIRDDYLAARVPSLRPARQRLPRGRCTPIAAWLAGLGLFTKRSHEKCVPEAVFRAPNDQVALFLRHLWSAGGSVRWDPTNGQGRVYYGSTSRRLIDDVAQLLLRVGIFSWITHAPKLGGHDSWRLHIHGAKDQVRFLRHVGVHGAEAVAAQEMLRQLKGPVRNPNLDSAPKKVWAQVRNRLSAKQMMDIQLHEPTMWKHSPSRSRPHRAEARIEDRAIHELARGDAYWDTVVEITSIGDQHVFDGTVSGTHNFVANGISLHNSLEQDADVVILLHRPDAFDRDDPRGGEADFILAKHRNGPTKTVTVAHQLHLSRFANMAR

Protein RecA = biological target: T5, Protein RecA (Mycobacterium tuberculosis, UniProt P9WHJ3); experiment: Fluorescence Cell-Free Homogeneous Dose Retest to Identify Inhibitors of RecA-Intein Splicing Activity. [Related pubchem assays (depositor defined):AID2097, AID2223, AID489010, AID492950]; type: functional
T5 sequence (P9WHJ3 whole entry): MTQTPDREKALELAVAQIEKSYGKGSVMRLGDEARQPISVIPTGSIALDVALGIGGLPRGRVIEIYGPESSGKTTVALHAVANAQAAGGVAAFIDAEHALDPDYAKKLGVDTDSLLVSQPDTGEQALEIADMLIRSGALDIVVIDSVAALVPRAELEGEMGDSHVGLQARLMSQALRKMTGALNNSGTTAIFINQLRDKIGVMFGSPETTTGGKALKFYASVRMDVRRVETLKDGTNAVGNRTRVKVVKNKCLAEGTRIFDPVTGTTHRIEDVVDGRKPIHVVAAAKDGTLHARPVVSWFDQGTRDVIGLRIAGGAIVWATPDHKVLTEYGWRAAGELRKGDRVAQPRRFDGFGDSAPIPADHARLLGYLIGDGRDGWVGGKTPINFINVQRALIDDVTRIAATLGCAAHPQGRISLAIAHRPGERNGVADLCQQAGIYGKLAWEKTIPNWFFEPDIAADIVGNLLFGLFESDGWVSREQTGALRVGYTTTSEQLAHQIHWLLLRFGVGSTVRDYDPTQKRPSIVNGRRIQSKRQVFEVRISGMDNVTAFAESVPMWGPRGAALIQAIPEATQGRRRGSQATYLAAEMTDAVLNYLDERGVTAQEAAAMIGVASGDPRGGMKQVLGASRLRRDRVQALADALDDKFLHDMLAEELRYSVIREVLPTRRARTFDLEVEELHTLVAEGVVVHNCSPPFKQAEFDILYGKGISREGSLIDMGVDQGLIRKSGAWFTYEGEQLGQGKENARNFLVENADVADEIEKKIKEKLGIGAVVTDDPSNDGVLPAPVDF

[8] = luciferase reporter signal suppression in cells – H4 neuroglioma cells, luminescence, dose response (AID 1990); type: functional, cell-based
[9] = Luminescence Cell-Based Dose Response HTS to Identify Inhibitors of 5'UTR Stem-Loop Driven Prion Protein mRNA Translation in H4 Neuroglioblastoma Cells. [Related pubchem assays: 1827 (Project Summary), 1813 (Primary HTS)]; type: functional
[10] = alpha-synuclein stem-loop luciferase translation blockers – H4 neuroglioma cells, luminescence, confirmation (AID 1988); type: functional, cell-based
cells = type: functional

Row | SMILES | EC50 [1] | EC50 [3] | IC50 [6] | further results
1 | CCOC(=O)N1CCN(C(=O)c2ccc3c(c2)NC(=O)/C(=C\c2ccc(OC)c(OC)c2)S3)CC1 | > 300 µM (not active) | > 300 µM (inconclusive) |  | EC50 [2]: 0.875 µM (active); EC50 (Streptococcus): 5.67 µM (active)
2 | O=C(O)c1cc(-n2cccc2)ccc1N1CCOCC1 | > 300 µM (not active) | 74.3 µM (active) |  | 
3 | NC(=O)c1ccsc1N | 10.9 µM (active) | 10.1 µM (inconclusive) |  | 
4 | COc1ccc2[nH]c(SCC(=O)Nc3nonc3C)nc2c1 | 18.4 µM (active) | 20.7 µM (inconclusive) |  | 
5 | Cc1cccc(N(C)S(=O)(=O)c2nnc(NC(=O)c3ccco3)s2)c1 | > 300 µM (not active) | > 300 µM (not active) |  | 
6 | Nc1ccc(N2CCN(c3cccc(Cl)c3)CC2)cc1 |  |  | 21 µM (active) | EC50 [4]: > 150 µM (inactive); EC50 [5]: > 38 µM (not active)
7 | Cc1c(N(C)C)nc2ccccc2c1N |  |  | 102 µM (active) | 
8 | O=C(NNC(=O)c1ccccc1[N+](=O)[O-])c1cnccn1 | 76.5 µM (active) | 1.25 µM (active) |  | 
9 | C=CCn1c(-c2cccnc2Cl)nc2ccccc21 |  |  |  | AC50 [7]: > 380 µM (inactive); EC50 (Protein RecA): > 380 µM (inactive)
10 | CCOC(=O)c1c(NC(=O)/C=C/C(=O)O)sc(C)c1-c1ccc(F)cc1 |  |  |  | AC50 [7]: 14.3 µM (active); EC50 (Protein RecA): 6.23 µM (active)
11 | CC(C)(C)NC(=O)C(c1ccc(Cl)cc1)N(Cc1ccco1)C(=O)CCl (stereo not drawn) |  |  |  | AC50 [7]: 24.1 µM (active); EC50 (Protein RecA): 1.97 µM (active)
12 | Cn1c(SCC(=O)NCc2ccc(F)cc2)nc2ccccc21 |  |  |  | AC50 [7]: 124 µM (active); EC50 (Protein RecA): > 380 µM (inactive)
13 | O=C(Oc1ccc(Br)cc1C(=S)N1CCOCC1)c1cccc([N+](=O)[O-])c1 |  |  |  | AC50 [7]: 18.2 µM (active); EC50 (Protein RecA): 23.1 µM (active)
14 | O=C(/C=C/c1c(Cl)cccc1Cl)N1CCOCC1 | > 300 µM (not active) | > 300 µM (not active) |  | 
15 | COc1ccc(CCNC(=O)CNCC(c2ccccc2)N(C)C)cc1OC (stereo not drawn) |  |  | 78.4 µM (active) | 
16 | OCCN1CCN(CC(O)COC(c2ccc(F)cc2)c2ccc(F)cc2)CC1 (stereo not drawn) |  |  | 121 µM (active) | 
17 | Cc1ccccc1N=Nc1c(O)n(C)c2ccccc12 | > 300 µM (not active) | > 300 µM (not active) |  | 
18 | CN1C(=O)C(=C2CC(c3ccccc3)N(C(=O)CCl)N2)C(=O)N(C)C1=O (stereo not drawn) |  |  |  | AC50 [7]: 2.05 µM (active); EC50 (Protein RecA): 0.351 µM (active)
19 | CCC1(CC)NC(=O)N(CC(=O)N2N=C(c3ccc(Cl)cc3)CC2c2ccco2)C1=O (stereo not drawn) |  |  |  | EC50 [8]: > 120 µM (not active); EC50 [9]: > 120 µM (not active); EC50 [10]: > 120 µM (not active)
20 | C=CCNC(=S)Nc1ccc(OC(=O)Nc2ccc(Cl)c(Cl)c2)cc1 |  |  | 89 µM (active) | 
21 | CC(C)CC1C(C#N)=C(N)Oc2[nH]nc(-c3cccs3)c21 (stereo not drawn) |  |  |  | AC50 [7]: 48.8 µM (active); EC50 (Protein RecA): 58.1 µM (active)
22 | COC(=O)c1ccc(-n2c(C)ccc2-c2ccccc2)cc1 | > 300 µM (not active) | > 300 µM (not active) |  | 
23 | CC(=O)Nc1ccc(OC(=O)c2ccc(Br)c([N+](=O)[O-])c2)cc1 |  |  | 36.4 µM (active) | IC50 (cells): 10.1 µM (active)
24 | CC1=NNC(=O)C1Cc1c(Cl)cccc1Cl (stereo not drawn) |  |  |  | AC50 [7]: 1.39 µM (active); EC50 (Protein RecA): 0.642 µM (active)
25 | COc1cc(C=NNC(=O)c2ccccc2-n2cccc2)ccc1O |  |  | 32.7 µM (active) | 
26 | Oc1ccc(CCc2ccccn2)cc1 |  |  | 40 µM (active) | 
27 | Oc1ccc(/C=N/Nc2ncc(Cl)cc2Cl)cc1 |  |  | 32.3 µM (active) | 
28 | Oc1cccc(/C=N/N=C/c2cccc(O)c2O)c1O | 42.9 µM (active) | 24.6 µM (active) |  | 
